# PMC2119788 (The Journal of Cell Biology, 1993)
# Columns and labels:
# A-1 fibroblasts = conditions: previous report; ref Roch et al., 1992; cited from earlier work
# A-1 cells = type: cell-based; conditions: included in the assay media at 100 ug/ml; data not shown
Substance,Activity on the A-1 cell growth assay (A-1 fibroblasts),Inhibition of the growth-promoting effect of 17-mer or KB75 (A-1 cells)
TPDAVDKYLETPGDENEHAHFQKAKERLEAKHRERMSQVM [40-mer],active,
heparan sulfate,,failed to inhibit
heparin,,failed to inhibit
